Measurements from the NIST ThermoML archive (doi:10.1021/acs.jced.7b00159).

Conditions: Liquid, Pendant drop shape

CCCCCCCCCCCCCCC [pentadecane] + O=C=O
interfacial tension [mN/m]
Conditions	323.15 K	353.15 K
1050 kPa	21.31	–
1500 kPa	–	18.19
2100 kPa	–	17.27
2130 kPa	19.32	–
3100 kPa	17.53	16.23
4050 kPa	15.63	–
4200 kPa	–	14.66
5130 kPa	13.49	–
5400 kPa	–	13.29
6100 kPa	11.98	12.36
7100 kPa	10.16	–
7900 kPa	–	10.2
8100 kPa	8.46	–
8900 kPa	–	8.9
9000 kPa	6.66	–
9600 kPa	5.32	–
10000 kPa	–	7.87
10100 kPa	4.72	–
11100 kPa	–	6.78
12100 kPa	–	5.82
13100 kPa	–	4.66
14100 kPa	–	3.75
15100 kPa	–	3.06

CCCCCCCCCCCCCC [tetradecane] + O=C=O
interfacial tension [mN/m]
Conditions	323.15 K	353.15 K
1050 kPa	20.79	–
1200 kPa	–	18.19
2100 kPa	–	17.01
2110 kPa	18.89	–
3050 kPa	17.05	–
3200 kPa	–	15.62
3950 kPa	15.41	–
4040 kPa	–	14.48
5020 kPa	13.51	–
5120 kPa	–	13.21
5960 kPa	11.59	–
6110 kPa	–	12.2
7030 kPa	9.79	–
7090 kPa	–	10.94
8000 kPa	8.27	–
8090 kPa	–	9.9
8940 kPa	6.5	–
9020 kPa	6.35	–
10050 kPa	3.98	7.61
11120 kPa	–	6.5
12010 kPa	–	5.5

CCCCCCCCCCC [undecane] + O=C=O
interfacial tension [mN/m]
Conditions	323.15 K	353.15 K
1030 kPa	19.26	–
1100 kPa	–	17.09
2100 kPa	17.25	15.83
3100 kPa	15.05	14.38
4100 kPa	13.12	13.17
5100 kPa	10.98	11.69
6100 kPa	8.68	10.45
7100 kPa	7.2	9.31
8100 kPa	4.95	7.45
9100 kPa	–	6.45
10100 kPa	–	5.59
11100 kPa	–	4.37
12100 kPa	–	3.39

CCCCCCCCCC [decane] + O=C=O
interfacial tension [mN/m]
Conditions	323.15 K	353.15 K
900 kPa	18.82	–
1200 kPa	–	16.45
2100 kPa	16.35	15.25
2990 kPa	14.77	–
3020 kPa	–	14.07
4100 kPa	12.56	12.52
5100 kPa	–	11.28
6100 kPa	8.43	9.86
7100 kPa	6.85	–
7110 kPa	–	8.6
8100 kPa	4.89	7.85
9100 kPa	–	5.91
10100 kPa	–	4.65

CCCCCCCCCCCCCCCCCCC [nonadecane] + O=C=O
interfacial tension [mN/m]
Conditions	323.15 K	353.15 K
1100 kPa	–	19.52
2060 kPa	–	18.23
2400 kPa	20.57	–
3100 kPa	–	16.88
3200 kPa	18.91	–
4140 kPa	–	15.58
4200 kPa	17.25	–
5050 kPa	15.27	–
5140 kPa	–	14.35
6060 kPa	–	13.27
6150 kPa	12.93	–
7100 kPa	11.35	–
7120 kPa	–	12.06
8050 kPa	–	11.03
8200 kPa	9.61	–
9200 kPa	7.78	9.76
10000 kPa	6.39	–
10020 kPa	–	8.94
11100 kPa	–	7.87
12000 kPa	–	7
13070 kPa	–	5.97
14040 kPa	–	5.08

CCCCCCCCCCCCC [tridecane] + O=C=O
interfacial tension [mN/m]
Conditions	323.15 K	353.15 K
1100 kPa	20	–
1500 kPa	–	17.72
2100 kPa	18.27	–
2600 kPa	–	16.09
4100 kPa	14.42	14.09
5100 kPa	12.93	12.85
6100 kPa	11.47	12.02
7100 kPa	9.42	10.41
8100 kPa	–	9.58
8600 kPa	6.83	–
9100 kPa	–	8.18
9600 kPa	4.91	–
10100 kPa	–	7.07
10600 kPa	2.83	–
11100 kPa	–	6.1
12100 kPa	–	4.84
13100 kPa	–	3.89
14100 kPa	–	3.14
15100 kPa	–	2.21
16100 kPa	–	1.68
17100 kPa	–	1.14

CCCCCCCCCCCCCCCCC [heptadecane] + O=C=O
interfacial tension [mN/m]
Conditions	323.15 K	353.15 K
1100 kPa	–	18.47
1200 kPa	20.95	–
2100 kPa	–	17.15
2600 kPa	18.3	–
3300 kPa	16.99	15.48
4100 kPa	15.49	14.62
5100 kPa	13.95	–
5200 kPa	–	13.38
6100 kPa	11.78	–
6720 kPa	–	11.71
7100 kPa	–	11.26
7300 kPa	9.69	–
8120 kPa	8.52	–
8150 kPa	–	10.09
9300 kPa	–	9.14
10100 kPa	5.08	–
10600 kPa	–	7.78
12600 kPa	–	5.78
14100 kPa	–	4.3
15100 kPa	–	3.57
16200 kPa	–	2.81

CCCCCCCCCCCCCCCC [hexadecane] + O=C=O
Conditions	interfacial tension [mN/m]
323.15 K, 1030 kPa	21.5
323.15 K, 2050 kPa	19.61
323.15 K, 2960 kPa	17.95
323.15 K, 4010 kPa	15.94
323.15 K, 5020 kPa	14.12
323.15 K, 5960 kPa	12.43
323.15 K, 7000 kPa	10.52
323.15 K, 8020 kPa	8.71
323.15 K, 8960 kPa	6.98
323.15 K, 9040 kPa	7.5
323.15 K, 10020 kPa	5.02
353.15 K, 1200 kPa	18.68
353.15 K, 2100 kPa	17.48
353.15 K, 3200 kPa	16.05
353.15 K, 4040 kPa	14.99
353.15 K, 5120 kPa	13.67
353.15 K, 6110 kPa	12.5
353.15 K, 7090 kPa	11.37
353.15 K, 8090 kPa	10.25
353.15 K, 8990 kPa	9.28
353.15 K, 10050 kPa	8.1
353.15 K, 11120 kPa	7.11
353.15 K, 12010 kPa	6.12

CCCCCCCCCCCC [dodecane] + O=C=O
interfacial tension [mN/m]
Conditions	323.15 K	353.15 K
1100 kPa	19.27	16.94
2100 kPa	17.29	16.02
3100 kPa	–	14.66
3600 kPa	14.47	–
4100 kPa	13.55	13.4
5100 kPa	–	11.99
6100 kPa	9.51	10.69
7100 kPa	7.68	9.44
8100 kPa	5.57	8.32
9100 kPa	–	6.96
10100 kPa	–	5.88
11100 kPa	–	4.8

CCCCCCCCCCCCCCCCCCCC [eicosane] + O=C=O
353.15 K
Conditions	interfacial tension [mN/m]
1000 kPa	20.35
2000 kPa	18.99
4000 kPa	16.13
6000 kPa	13.37
8000 kPa	10.34
10000 kPa	7.85
12000 kPa	5.55
14000 kPa	3.71
16000 kPa	2.38

CCCCCCCCCCCCCCCCCC [octadecane] + O=C=O
interfacial tension [mN/m]
Conditions	323.15 K	353.15 K
400 kPa	–	20.05
410 kPa	23.35	–
1100 kPa	–	19.16
1300 kPa	21.23	–
2000 kPa	18.53	–
2200 kPa	–	17.73
2670 kPa	17.13	–
3200 kPa	15.63	–
3300 kPa	–	16.22
4000 kPa	14.12	–
4180 kPa	–	15.13
5100 kPa	11.94	–
5300 kPa	–	13.86
6150 kPa	–	12.92
6250 kPa	9.84	–
7000 kPa	8.65	–
7200 kPa	–	11.8
8100 kPa	–	10.68
8150 kPa	5.07	–
9100 kPa	3.15	–
9300 kPa	–	9.66
10100 kPa	1.83	8.87
11100 kPa	–	7.66
12100 kPa	–	6.63
13000 kPa	–	5.74
14000 kPa	–	4.91
15000 kPa	–	4.05
16300 kPa	–	3.08
17400 kPa	–	2.49
